Molecular target: T1, Poly (ADP-ribose) polymerase-1 (PARP-1) (Homo sapiens, UniProt P09874)
T1 construct: gene PARP1
Assay: radioligand saturation binding in PC-3 tumor xenografts

T1 sequence (P09874 2-1014): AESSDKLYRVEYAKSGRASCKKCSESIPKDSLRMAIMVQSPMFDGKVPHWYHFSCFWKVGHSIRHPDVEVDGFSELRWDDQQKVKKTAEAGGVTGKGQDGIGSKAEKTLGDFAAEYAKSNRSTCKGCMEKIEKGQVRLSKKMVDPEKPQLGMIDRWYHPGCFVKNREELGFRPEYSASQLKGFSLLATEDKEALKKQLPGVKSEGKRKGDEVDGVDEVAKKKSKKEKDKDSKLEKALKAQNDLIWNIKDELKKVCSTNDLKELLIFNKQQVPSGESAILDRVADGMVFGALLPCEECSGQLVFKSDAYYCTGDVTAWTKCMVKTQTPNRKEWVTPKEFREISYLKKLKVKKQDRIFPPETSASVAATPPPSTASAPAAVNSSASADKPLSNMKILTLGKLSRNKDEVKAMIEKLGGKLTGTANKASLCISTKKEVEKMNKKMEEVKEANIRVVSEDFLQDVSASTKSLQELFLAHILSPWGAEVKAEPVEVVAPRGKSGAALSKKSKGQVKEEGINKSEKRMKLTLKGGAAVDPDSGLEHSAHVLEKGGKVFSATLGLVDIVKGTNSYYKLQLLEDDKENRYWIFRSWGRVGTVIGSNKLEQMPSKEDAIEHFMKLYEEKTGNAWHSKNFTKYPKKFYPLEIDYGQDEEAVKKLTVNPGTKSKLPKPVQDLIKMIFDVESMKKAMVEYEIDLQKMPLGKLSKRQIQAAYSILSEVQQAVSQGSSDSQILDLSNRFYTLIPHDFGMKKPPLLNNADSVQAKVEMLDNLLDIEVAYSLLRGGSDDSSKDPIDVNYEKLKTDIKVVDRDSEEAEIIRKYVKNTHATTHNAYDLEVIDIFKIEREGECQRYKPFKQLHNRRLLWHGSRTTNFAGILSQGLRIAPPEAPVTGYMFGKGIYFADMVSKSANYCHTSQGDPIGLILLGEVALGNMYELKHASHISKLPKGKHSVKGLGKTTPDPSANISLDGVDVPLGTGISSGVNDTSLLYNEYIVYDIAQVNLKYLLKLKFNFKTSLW

Q: With [^77Br]Br-WC-DZ as the substance, how does the Kd read?
A: 580 ± 250 pM

Reference: PMC9967758, “Preclinical Efficacy of a PARP-1 Targeted Auger-Emitting Radionuclide in Prostate Cancer” (International Journal of Molecular Sciences, 2023)
